Laboratory results published in patent publication US20080188478A1, “Compounds Useful In Therapy” (Pfizer Inc., priority 2005, published 2008).

Key:
[1] = biological target: human V1A receptor (Homo sapiens, UniProt P37288); assay: V1A filter binding assay ([3H]-AVP binding to CHO-hV1A membranes); conditions: screen 1.0, Ki by Cheng-Prusoff equation
Procedure: 1.0 V1A Filter Binding Assay
Receptor binding assays were performed on cellular membranes prepared from CHO cells stably expressing the human V1A receptor, (CHO-hV1A). The CHO-hV1A cell line was kindly provided under a licensing agreement by Marc Thibonnier, Dept. of Medicine, Case Western Reserve University School of Medicine, Cleveland, Ohio. CHO-hV1A cells were routinely maintained at 37° C. in humidified atmosphere with 5% CO2 in DMEM/Hams F12 nutrient mix supplemented with 10% fetal bovine serum, 2 mM L-glutamine, 15 mM HEPES and 400 μg/ml G418. For bulk production of cell pellets, adherent CHO-hV1A cells were grown to confluency of 90-100% in 850 cm^2 roller bottles containing a medium of DMEM/Hams F12 Nutrient Mix supplemented with 10% fetal bovine serum, 2 mM L-glutamine and 15 mM HEPES. Confluent CHO-hV1A cells were washed with phosphate-buffered saline (PBS), harvested into ice cold PBS and centrifuged at 1,000 rpm. Cell pellets were stored at −80° C. until use. When required, the cell pellets were thawed on ice and homogenised in membrane preparation buffer consisting of 50 mM Tris-HCl, pH 7.4, 5 mM MgCl2 and supplemented with a protease inhibitor cocktail, (Roche). The cell homogenate was centrifuged at 1000 rpm, 10 min, 4° C. and the supernatant was removed and stored on ice. The remaining pellet was homogenised and centrifuged as before. The supernatants were pooled and centrifuged at 25,000×g for 30 min at 4° C. The pellet was resuspended in freezing buffer consisting of 50 mM Tris-HCl, pH 7.4, 5 mM MgCl2 and 20% glycerol and stored in small aliquots at −80° C. until use. Protein concentration was determined using Bradford reagent and BSA as a standard.
Protein linearity, followed by saturation binding studies were performed on each new batch of membrane. A membrane concentration was chosen that gave specific binding on the linear portion of the curve. Saturation binding studies were then performed using various concentrations of [^3H]-arginine vasopressin, [^3H]-AVP (0.05 nM-100 nM) and the Kd and Bmax were determined. […] The plates were sealed and counted on a TopCount Microplate Scintillation Counter (Packard Instruments). Non-specific binding (NSB) was determined using 1 μM unlabelled d(CH2)5Tyr(Me)AVP ([β-mercapto-β,β-cyclopentamethylenepropionyl, 0-Me-Tyr^2, Arg^8]-vasopressin) (βMCPVP), (Sigma). The radioligand binding data was analysed using a four parameter logistic equation with the min forced to 0%. […] Specific binding was calculated by subtracting the mean NSB cpm from the mean Total cpm. For test compounds the amount of ligand bound to the receptor was expressed as % bound=(sample cpm−mean NSB cpm)/specific binding cpm×100. […]

human V1A receptor, sequence (P37288 whole entry): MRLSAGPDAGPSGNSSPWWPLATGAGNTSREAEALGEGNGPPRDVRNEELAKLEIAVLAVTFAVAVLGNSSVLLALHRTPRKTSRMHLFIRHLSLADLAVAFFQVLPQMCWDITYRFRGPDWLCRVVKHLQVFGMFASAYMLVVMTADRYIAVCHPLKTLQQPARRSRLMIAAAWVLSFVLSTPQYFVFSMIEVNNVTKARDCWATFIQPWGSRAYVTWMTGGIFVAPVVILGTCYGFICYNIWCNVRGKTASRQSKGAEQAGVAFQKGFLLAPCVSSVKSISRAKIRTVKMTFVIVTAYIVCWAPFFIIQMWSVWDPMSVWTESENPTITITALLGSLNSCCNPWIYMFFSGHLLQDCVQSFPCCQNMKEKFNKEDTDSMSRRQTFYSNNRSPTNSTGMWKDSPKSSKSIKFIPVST

Row | Ki [1] [nM] | melting point [°C] | SMILES
1 | 1.1 |  | O=c1oc2cccnc2n1C1CCN(c2nnc(Cn3nccn3)n2-c2ccc(Cl)cc2)CC1 [Example 7, 3-{1-[4-(4-chlorophenyl)-5-(2H-1,2,3-triazol-2-ylmethyl)-4H-1,2,4-triazol-3-yl]piperidin-4-yl}[1,3]oxazolo[4,5-b]pyridin-2(3H)-one]
2 |  | 210 to 212 | Cc1nnc(N2CCC(N3c4ccccc4N(C)S3(=O)=O)CC2)n1-c1ccc(Cl)cc1 [Example 18, 1-{1-[4-(4-Chlorophenyl)-5-methyl-4H-1,2,4-triazol-3-yl]piperidin-4-yl}-3-methyl-1,3-dihydro-2,1,3-benzothiadiazole 2,2-dioxide]
3 | 0.49 |  | Cc1nnc(N2CCN(c3nsc4ccccc34)CC2)n1-c1ccc(Cl)cc1 [Example 20, 3-{4-[4-(4-Chlorophenyl)-5-methyl-4H-1,2,4-triazol-3-yl]piperazin-1-yl}-1,2-benzisothiazole]
4 | 0.79 |  | FC(F)(F)c1nnc(N2CCN(c3nsc4ccccc34)CC2)n1-c1ccc(Cl)cc1 [Example 22, 3-{4-[4-(4-Chlorophenyl)-5-(trifluoromethyl)-4H-1,2,4-triazol-3-yl]piperazin-1-yl}-1,2-benzisothiazole]
5 | 1.04 |  | Cc1nnc(C2CCN(c3noc4cccnc34)CC2)n1-c1ccc(Cl)cc1 [Example 29, 3-{4-[4-(4-Chlorophenyl)-5-methyl-4H-1,2,4-triazol-3-yl]piperidin-1-yl}isoxazolo[4,5-b]pyridine]
